Structures are written as SMILES.

The target of this assay is T1, TorsinAEQ-LULL1 (TorsinA-ATP-LULL1) (Homo sapiens, UniProt O14656+Q8NFQ8, O14656:E171Q).
T1 construct: gene TOR1A; TorsinA 51-332 (E171Q ATP trap), N-terminal 10xHis-7xArg tag cut by 3C; untagged luminal domain LULL1 233-470; co-expressed in E. coli with alpaca nanobody VHH-BS2 (crystallisation chaperone); heterodimer plus nanobody
Description: X-ray crystal structure, […] Å. The assay is classed as binding. The settings on record: 2 mM ATP, pH 6.5; crystallised with nanobody VHH-BS2; ATP in Walker A/B nucleotide site with LULL1 Arg449 finger.

Turning to `Nc1ncnc2c1ncn2[C@@H]1O[C@H](COP(=O)(O)OP(=O)(O)OP(=O)(O)O)[C@@H](O)[C@H]1O` [ATP], the “X-ray crystal structure, 1.40 Å” value is listed as “An ATP molecule is bound in the manner characteristic of P-loop NTPases”.

For the origin of these results see paper PMC4999309, “Structures of TorsinA and its disease-mutant complexed with an activator reveal the molecular basis for primary dystonia” (eLife, 2016).
